Measured values reported in the supplement of paper PMC10307832.

Tests used:
Experiment in all cases: relative viability (nuclei count vs DMSO), 5 days (fraction); higher = more cells survive
[1] = tested on: NCI-H2228
How it was run: (§1)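 Lung cancer cell lines in 1536-well plates were dosed by pin tool the day after seeding, either with one drug alone or with a fixed anchor-drug dose plus five library-drug doses (not always all listed) in √10 steps. After 5 days, cells were fixed and their nuclei stained in one step (final 0.05% Triton X-100, 1% formaldehyde, 1 ug/ml Hoechst), then counted on 4× images. Relative viability is the nuclei count in treated wells divided by that in vehicle wells. Values are medians of duplicate plates.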

[2] = tested on: NCI-H647
How it was run: as §1

[3] = tested on: BEN
How it was run: as §1

[4] = tested on: NCI-H727
How it was run: as §1

[5] = tested on: NCI-H1650
How it was run: as §1

[6] = tested on: NCI-H1792
How it was run: as §1

[7] = tested on: NCI-H2405
How it was run: as §1

[8] = tested on: LXF-289
How it was run: as §1

[9] = tested on: HCC-827
How it was run: as §1

[10] = tested on: NCI-H3122
How it was run: as §1

[11] = tested on: CAL-12T
How it was run: as §1

[12] = tested on: NCI-H322M
How it was run: as §1

[13] = tested on: LCLC-103H
How it was run: as §1

[14] = tested on: SK-LU-1
How it was run: as §1

[15] = tested on: RERF-LC-KJ
How it was run: as §1

[16] = tested on: LCLC-97TM1
How it was run: as §1

[17] = tested on: NCI-H2087
How it was run: as §1

[18] = tested on: 201T
How it was run: as §1

[19] = tested on: NCI-H1437
How it was run: as §1

## CC(=O)O[C@@]12CO[C@@H]1C[C@H](O)[C@@]1(C)C(=O)[C@H](O)C3=C(C)[C@@H](OC(=O)[C@H](O)[C@@H](NC(=O)OC(C)(C)C)c4ccccc4)C[C@@](O)([C@@H](OC(=O)c4ccccc4)[C@H]21)C3(C)C [Docetaxel] + CC(C)C[C@H](NC(=O)[C@H](Cc1ccccc1)NC(=O)c1cnccn1)B(O)O [Bortezomib] (partner 0.002 µM)
[1]; first compound 0.0002 µM
  relative viability: 0.617
[1]; first compound 0.000632 µM
  relative viability: 0.212
[1]; first compound 0.002 µM
  relative viability: 0.149
[1]; first compound 0.006325 µM
  relative viability: 0.243
[1]; first compound 0.02 µM
  relative viability: 0.152
[2]; first compound 0.0002 µM
  relative viability: 0.762
[2]; first compound 0.000632 µM
  relative viability: 0.23
[2]; first compound 0.002 µM
  relative viability: 0.113
[2]; first compound 0.006325 µM
  relative viability: 0.123
[2]; first compound 0.02 µM
  relative viability: 0.0811
[3]; first compound 0.0002 µM
  relative viability: 0.612
[3]; first compound 0.000632 µM
  relative viability: 0.644
[3]; first compound 0.002 µM
  relative viability: 0.341
[3]; first compound 0.006325 µM
  relative viability: 0.263
[3]; first compound 0.02 µM
  relative viability: 0.164
[4]; first compound 0.0002 µM
  relative viability: 0.795
[4]; first compound 0.000632 µM
  relative viability: 0.855
[4]; first compound 0.002 µM
  relative viability: 0.474
[4]; first compound 0.006325 µM
  relative viability: 0.473
[4]; first compound 0.02 µM
  relative viability: 0.483
[5]; first compound 0.0002 µM
  relative viability: 0.2
[5]; first compound 0.000632 µM
  relative viability: 0.196
[5]; first compound 0.002 µM
  relative viability: 0.204
[5]; first compound 0.006325 µM
  relative viability: 0.181
[5]; first compound 0.02 µM
  relative viability: 0.201
[6]; first compound 0.0002 µM
  relative viability: 0.951
[6]; first compound 0.000632 µM
  relative viability: 0.82
[6]; first compound 0.002 µM
  relative viability: 0.6
[6]; first compound 0.02 µM
  relative viability: 0.12
[7]; first compound 0.0002 µM
  relative viability: 0.988
[7]; first compound 0.000632 µM
  relative viability: 0.956
[7]; first compound 0.002 µM
  relative viability: 0.681
[7]; first compound 0.006325 µM
  relative viability: 0.394
[7]; first compound 0.02 µM
  relative viability: 0.308
[8]; first compound 0.0002 µM
  relative viability: 0.995
[8]; first compound 0.000632 µM
  relative viability: 0.81
[8]; first compound 0.002 µM
  relative viability: 0.594
[8]; first compound 0.006325 µM
  relative viability: 0.133
[8]; first compound 0.02 µM
  relative viability: 0.0991
[9]; first compound 0.0002 µM
  relative viability: 0.891
[9]; first compound 0.000632 µM
  relative viability: 0.962
[9]; first compound 0.002 µM
  relative viability: 1
[9]; first compound 0.006325 µM
  relative viability: 0.562
[9]; first compound 0.02 µM
  relative viability: 0.328
[10]; first compound 0.0002 µM
  relative viability: 1.04
[10]; first compound 0.000632 µM
  relative viability: 0.907
[10]; first compound 0.002 µM
  relative viability: 0.864
[10]; first compound 0.006325 µM
  relative viability: 0.368
[10]; first compound 0.02 µM
  relative viability: 0.227
[11]; first compound 0.0002 µM
  relative viability: 0.822
[11]; first compound 0.000632 µM
  relative viability: 0.404
[11]; first compound 0.002 µM
  relative viability: 0.348
[11]; first compound 0.006325 µM
  relative viability: 0.271
[11]; first compound 0.02 µM
  relative viability: 0.148
[12]; first compound 0.0002 µM
  relative viability: 1.11
[12]; first compound 0.000632 µM
  relative viability: 1.22
[12]; first compound 0.002 µM
  relative viability: 1.05
[12]; first compound 0.006325 µM
  relative viability: 0.602
[12]; first compound 0.02 µM
  relative viability: 0.469
[13]; first compound 0.0002 µM
  relative viability: 1.15
[13]; first compound 0.000632 µM
  relative viability: 1.12
[13]; first compound 0.002 µM
  relative viability: 0.714
[13]; first compound 0.006325 µM
  relative viability: 0.589
[13]; first compound 0.02 µM
  relative viability: 0.402
[14]; first compound 0.0002 µM
  relative viability: 0.951
[14]; first compound 0.000632 µM
  relative viability: 0.392
[14]; first compound 0.002 µM
  relative viability: 0.307
[14]; first compound 0.006325 µM
  relative viability: 0.267
[14]; first compound 0.02 µM
  relative viability: 0.208
[15]; first compound 0.0002 µM
  relative viability: 0.967
[15]; first compound 0.000632 µM
  relative viability: 0.841
[15]; first compound 0.002 µM
  relative viability: 0.499
[15]; first compound 0.006325 µM
  relative viability: 0.251
[15]; first compound 0.02 µM
  relative viability: 0.198
[16]; first compound 0.0002 µM
  relative viability: 0.624
[16]; first compound 0.000632 µM
  relative viability: 0.125
[16]; first compound 0.002 µM
  relative viability: 0.106
[16]; first compound 0.006325 µM
  relative viability: 0.083
[16]; first compound 0.02 µM
  relative viability: 0.051
[17]; first compound 0.0002 µM
  relative viability: 0.701
[17]; first compound 0.000632 µM
  relative viability: 0.665
[17]; first compound 0.002 µM
  relative viability: 0.28
[17]; first compound 0.006325 µM
  relative viability: 0.224
[17]; first compound 0.02 µM
  relative viability: 0.142
[18]; first compound 0.0002 µM
  relative viability: 1.07
[18]; first compound 0.000632 µM
  relative viability: 1.1
[18]; first compound 0.002 µM
  relative viability: 1.03
[18]; first compound 0.006325 µM
  relative viability: 0.624
[18]; first compound 0.02 µM
  relative viability: 0.425
[19]; first compound 0.0002 µM
  relative viability: 0.472
[19]; first compound 0.000632 µM
  relative viability: 0.322
[19]; first compound 0.002 µM
  relative viability: 0.215
[19]; first compound 0.006325 µM
  relative viability: 0.145
[19]; first compound 0.02 µM
  relative viability: 0.104
